Data on 4 molecules can be found in PMC7337048 (Journal of Structural Biology: X, 2019).

Assay [1] deals with T1, human Arginase-1 (Homo sapiens, UniProt P05089).
T1 sequence (P05089 1-322): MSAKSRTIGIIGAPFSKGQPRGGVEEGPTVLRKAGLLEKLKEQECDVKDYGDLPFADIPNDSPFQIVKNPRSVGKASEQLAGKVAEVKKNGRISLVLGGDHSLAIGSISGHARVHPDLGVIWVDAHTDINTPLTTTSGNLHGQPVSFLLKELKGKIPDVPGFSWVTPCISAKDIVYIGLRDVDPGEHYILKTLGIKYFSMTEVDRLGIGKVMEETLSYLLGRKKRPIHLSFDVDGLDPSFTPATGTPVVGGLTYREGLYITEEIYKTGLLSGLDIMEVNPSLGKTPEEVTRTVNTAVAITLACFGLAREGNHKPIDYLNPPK
The assay can be described thus: Apparent Michaelis-Menten parameters, colorimetric urea assay. It is filed as biochemical. Conditions: substrate; for Km: read-out: Michaelis constant (KM). On the procedure:
Arginase-1 activity was monitored by measurement of the rate of urea formation in a classic colorimetric assay ([Jung et al., 1975], [Zawada et al., 2009]). All components of the assay were diluted in Arginase reaction buffer 1 (8 mM Na2HPO4, 2 mM KH2PO4, pH 7.4, 137 mM NaCl, 2.7 mM KCl, and 0.05% Tween-20) or Arginase reaction buffer 2 (10 mM glycine, pH 9.5, 137 mM NaCl, 2.7 mM KCl, and 0.05% Tween-20). Compounds were either dissolved and diluted in DMSO, followed by further dilution in reaction buffer, or dissolved in MilliQ water (MQ) and diluted in reaction buffer to the desired concentrations. In a clear 384-well plate (cat. no. 781101; Greiner), 10 µL diluted compound and 10 µL of 3 nM (pH 9.5) or 15 nM (pH 7.4) Arginase-1 were combined and incubated for 90 min at room temperature. Then, 10 µL of 15 mM (pH 9.5) or 7.5 mM (pH 7.4) L-arginine (cat. no. 105000250; Acros Organics) was added to the plate, followed by incubation for 30 min. A 1:1 mixture of reagent A (10 mM o-phthaldialdehyde, 0.4% polyoxyethylene (23) lauryl ether (w/v) and 1.8 M sulfuric acid) and reagent B (1.3 mM primaquine diphosphate, 0.4% polyoxyethylene (23) lauryl ether (w/v), 130 mM boric acid and 3.6 M sulfuric acid) was prepared. The enzymatic reaction was stopped by addition of 30 μL of the reagent A + B mixture. After incubation with the reagent mixture for 60 min (pH 9.5) or 120 min (pH 7.4), the absorbance was measured at 450 nm using the EnVision 2104 Multilabel Plate Reader (PerkinElmer, Waltham, MA) (excitation filter P450). The final concentrations of Arginase-1 and L-arginine in the assay were respectively 1 nM and 5 mM at pH 9.5, and 5 nM and 2.5 mM at pH 7.4.

The subject of the next assay is Arginase-1. More on the design: method as in Stone et al., 2010, Alarcón et al., 2006, Tsui et al., 2009. Conditions: differences in pH and temperature; ref Stone et al., 2010, Alarcón et al., 2006, Tsui et al., 2009; cited from earlier work.
A further assay deals with Human Arginase-2. The conditions noted are these: cited from earlier work; for IC50: Enzyme assay at pH 7.4.
The target of assay [2] is T1, human Arginase-1. In words: Thermal shift assay. It is filed as binding. Conditions: 50 μM inhibitor. On the procedure:
In a 96-well PCR plate (cat no. 652260; Greiner), 10 μL of the enzyme solution was mixed with 5 μL of 200 μM compound dissolved in MQ. […] The plate was sealed with Microseal B Adhesive Sealer (cat. no. MSB1001; Bio-Rad, Hercules, CA) and placed in a CFX96 Real-Time Detection System (Bio-Rad). The temperature was increased from 20 to 95 °C in increments of 0.5 °C during which the SYPRO Orange fluorescence was measured. The resulting datasets were first truncated to contain only the data points that lie between the minimal and maximal fluorescence signals. The remaining data were then fitted to the sigmoidal five-parameter equation (Eq. (2)) ([Schulz et al., 2013]), in which Fmin and Fmax are respectively the minimum and maximum fluorescent signals of the melting transition, T is the temperature, a is the hill slope and c is the asymmetric factor. The melting temperature was then determined as the point of inflection of the melting curve (Eq. […] The reported values were measured in quadruplicate in four independent experiments.(2) […]

For assay [3], the target named is T1, human Arginase-1. In words: Surface plasmon resonance binding kinetics. Conditions: for τ (target residence time): τ = 1/kd. On the procedure:
Binding kinetics of the inhibitors were determined by SPR using a Biacore T200 (GE Healthcare). […] The inhibitors were diluted in running buffer from a stock solution in MQ and were injected in an increasing concentration range of 0.1, 0.316, 1, 3.16 and 10 µM. […] The compound response was subtracted with both the reference channel response and the blank injection.
(In general: SPR reads the build-up and loss of mass on a sensor chip optically.)

Assay [4] has as its target T1, human Arginase-1. The assay can be described thus: Arginase-1 colorimetric urea assay (inhibition). It is filed as biochemical. The conditions noted are these: for IC50: read-out: IC50 (nM) (95% CI); for Ki: Cheng-Prusoff equation, read-out: Ki (nM) (95% CI). On the procedure: Arginase-1 activity was monitored by measurement of the rate of urea formation in a classic colorimetric assay ([Jung et al., 1975], [Zawada et al., 2009]). […] Compounds were either dissolved and diluted in DMSO, followed by further dilution in reaction buffer, or dissolved in MilliQ water (MQ) and diluted in reaction buffer to the desired concentrations. […] The enzymatic reaction was stopped by addition of 30 μL of the reagent A + B mixture. […] The reported values were measured in quadruplicate in four independent experiments. Dose-response curves were fitted with a four-parameter logistic regression using XLFit (IDBS, Guildford, UK) to determine IC50 values. Graphs for the manuscript were prepared using Prism (GraphPad Software, San Diego, CA).

The target of assay [5] is T1, human Arginase-1. The conditions noted are these: Enzyme assay at pH 7.4; racemic ABH assumed; ref Golebiowski et al., 2013, Van Zandt et al., 2013, Golebiowski et al., 2013, Van Zandt et al., 2019; cited from earlier work.
The mark [6] stands for this setting: Enzyme assay at pH 7.5, ref Colleluori and Ash, 2001.

Structures are written as SMILES. Where “and” joins values, the source holds several entries; their conditions need not be identical. Equal entries are not always repeated. Where two headings read alike, the source gives them in different places.

One may read the Km as the substrate concentration at which the rate is half of its maximum. What is called kcat is the number of substrate molecules converted per active site and unit of time at saturation. `N=C(N)NCCC[C@H](N)C(=O)O` [L-arginine]: the “catalytic rate constant (kcat)” value on human Arginase-1 [1] (pH 7.4) came to 57 s⁻¹; on human Arginase-1 [1] (pH 9.5), 460 s⁻¹. Besides, the Michaelis-Menten constant (Km) was 2300 µM at human Arginase-1 [1] (pH 7.4); 4900 µM on human Arginase-1 [1] (pH 9.5); 1900 µM and 2300 µM and 1500 µM in the assay on Arginase-1. In addition, the kcat in the assay with Arginase-1 is 300 s⁻¹ and 190 s⁻¹.
In general, IC50 refers to the concentration needed to halve the response being measured. As to `C[C@H](N)C(=O)N1C[C@H](CCCB(O)O)[C@](N)(C(=O)O)C1` [CB-1158, (3R,4S)-3-amino-1-[(2S)-2-aminopropanoyl]-4-(3-boronopropyl)pyrrolidine-3-carboxylic acid], the IC50 on Human Arginase-2 (ref Oberlies et al., 2009) is 296 nM.
What is called Ki is a measure of affinity in units of concentration, obtained from inhibition or displacement. The ΔTm is the change in melting temperature against a reference sample. In the case of `N=C(NO)NCC[C@H](N)C(=O)O` [nor-NOHA, N^ω-hydroxy-nor-L-arginine], the IC50 on Human Arginase-2 (ref Van Zandt et al., 2019) was 1260 nM. Moreover, on Human Arginase-2 (setting [6]), the Ki is 51 nM. Moreover, the results for the ΔTm at 50 µM on human Arginase-1 [2] (pH 7.4) and at human Arginase-1 [2] (pH 9.5) were 4.8 °C and 4.7 °C, respectively.
The Kd is the equilibrium constant for the complex coming apart. Read a high Kd as weaker binding. One may read the Tm as the temperature at which the thermal transition is half complete. For `N[C@@H](CCCCB(O)O)C(=O)O` [ABH, (2S)-2-amino-6-boronohexanoic acid], the dissociation constant Kd on human Arginase-1 [3] (pH 7.4) was found to be 797 nM; on human Arginase-1 [3] (pH 9.5), 27 nM. The ka on human Arginase-1 [3] (pH 7.4) was 12000 M⁻¹ s⁻¹; at human Arginase-1 [3] (pH 9.5), 5100 M⁻¹ s⁻¹. The kd on human Arginase-1 [3] (pH 7.4) is 0.0099 s⁻¹; on human Arginase-1 [3] (pH 9.5) it was 0.00014 s⁻¹. The “log(ka)” value at human Arginase-1 [3] (pH 7.4) is on record as 4.09; at human Arginase-1 [3] (pH 9.5), 3.71. The “log(kd)” value is reported as −2.00 at human Arginase-1 [3] (pH 7.4) and −3.86 on human Arginase-1 [3] (pH 9.5). For the same molecule, the “τ (target residence time)” value at human Arginase-1 [3] (pH 7.4) is 100 s; on human Arginase-1 [3] (pH 9.5) it was 7200 s. Moreover, the IC50 at Human Arginase-2 (racemic ABH assumed, ref Golebiowski et al., 2013, Van Zandt et al., 2013, Golebiowski et al., 2013, Van Zandt et al., 2019) was 1920 to 2550 nM; on human Arginase-1 [4] (pH 7.4, 5 nM Arginase-1, 2.5 mM L-arginine), 184 nM; at human Arginase-1 [4] (pH 9.5, 1 nM Arginase-1, 5 mM L-arginine), 22 nM; at human Arginase-1 [5], 1450 to 1550 nM. In addition, the Ki at Human Arginase-2 (setting [6]) is 250 nM; at Human Arginase-2 (Enzyme assay at pH 9.5, ref Colleluori and Ash, 2001), 8.5 nM; on human Arginase-1 [4] (pH 7.4) it was 88 nM; at human Arginase-1 [4] (pH 9.5), 11 nM. In the assay with Human Arginase-2 (pH 7.5 versus pH 9.5, ref Colleluori and Ash, 2001), the “potency lower at pH 7.5 compared to pH 9.5” value is listed as ~30 times. The “decrease in the Ki on increase of the pH from 7.4 to 9.5” value at human Arginase-1 [4] (pH 7.4 versus pH 9.5) is given as 8 fold. The Tm at human Arginase-1 [2] (pH 7.4) was 77.4 °C; on human Arginase-1 [2] (pH 9.5) it was 80.9 °C. Further, the ΔTm at 50 µM amounted to 4.5 °C at human Arginase-1 [2] (pH 7.4) and 3.5 °C at human Arginase-1 [2] (pH 9.5).
